{"source": "ChEMBL document CHEMBL5052834", "about": "“CXCL10 Inhibitors” (2021)", "key": {"Keratinocyte [1]": {"tested_on": "Keratinocyte", "experiment": "Inhibition of CXCL10 gene expression in LPS-stimulated human keratinocytes", "format": "functional, cell-based"}, "Keratinocyte [2]": {"tested_on": "Keratinocyte", "experiment": "Inhibition of CXCL10 protein secretion in IFN-gamma-stimulated human keratinocytes measured by ELISA assay", "format": "functional, cell-based"}, "Keratinocyte [3]": {"tested_on": "Keratinocyte", "experiment": "Inhibition of CXCL10 gene expression in IFN-gamma-stimulated human keratinocytes", "format": "functional, cell-based"}, "Keratinocyte [4]": {"tested_on": "Keratinocyte", "experiment": "Inhibition of CXCL10 gene expression in TNF-alpha-stimulated human keratinocytes", "format": "functional, cell-based"}, "Keratinocyte [5]": {"tested_on": "Keratinocyte", "experiment": "Inhibition of CXCL10 gene expression in poly (I:C)-stimulated human keratinocytes", "format": "functional, cell-based"}, "Keratinocyte [6]": {"tested_on": "Keratinocyte", "experiment": "Inhibition of CXCL10 protein secretion in poly (I:C)-stimulated human keratinocytes measured by ELISA assay", "format": "functional, cell-based"}, "Keratinocyte [7]": {"tested_on": "Keratinocyte", "experiment": "Inhibition of CXCL10 protein secretion in LPS-stimulated human keratinocytes measured by ELISA assay", "format": "functional, cell-based"}, "Rattus norvegicus [8]": {"species": "Rattus norvegicus", "experiment": "Inhibition of CXCL10 gene expression in streptozotocin (STZ)-induced diabetes induced retinopathy model of rat assessed as decrease in amount of CXCL10 in retina measured by ELISA assay", "format": "functional"}, "Rattus norvegicus [9]": {"species": "Rattus norvegicus", "experiment": "Antiangiogenic activity in streptozotocin (STZ)-induced diabetes induced retinopathy model of rat assessed as decrease in retinal vascular permeability measured by Evans blue dye metho", "format": "functional, organism-based"}, "Mus musculus": {"tested_on": "Mus musculus", "experiment": "In vivo inhibition of CXCL10 gene expression in experimental autoimmune uveitis (EAU) model of C57BL/6 mouse", "format": "functional, organism-based"}, "Keratinocyte [10]": {"tested_on": "Keratinocyte", "experiment": "Inhibition of CXCL10 protein secretion in TNF-alpha-stimulated human keratinocytes measured by ELISA assay", "format": "functional, cell-based"}}, "note": "Calls of active or inactive are those of the source. The calls are words filed in the database; no cut-off is given here."}
{"smiles": "COc1c(C)cnc(C[S@+]([O-])c2nc3cc(OC(F)F)ccc3[nH]2)c1C", "values": [{"measurement": "inhibition", "setting": "Keratinocyte [1]", "result": "Active"}]}
{"smiles": "Cc1cnc(CC(O)c2nc3cc(OC(F)F)ccc3[nH]2)c(C)c1OCC(F)(F)F", "note": "(stereo not drawn)", "values": [{"measurement": "inhibition", "setting": "Keratinocyte [2]", "result": "Active"}]}
{"smiles": "COc1c(C)cnc(CS(=O)(=O)c2nc3cc(OC(F)F)ccc3[nH]2)c1C", "values": [{"measurement": "inhibition", "setting": "Keratinocyte [1]", "result": "Active"}]}
{"smiles": "COc1ccnc(CS(=O)(=O)c2nc3cc(OC(F)F)ccc3[nH]2)c1OC", "values": [{"measurement": "inhibition", "setting": "Keratinocyte [2]", "result": "Active"}]}
{"smiles": "COc1c(C)cnc(CC(O)c2nc3cc(-n4cccc4)ccc3[nH]2)c1C", "note": "(stereo not drawn)", "values": [{"measurement": "inhibition", "setting": "Keratinocyte [3]", "result": "Active"}]}
{"smiles": "Cc1c(OCC(F)(F)F)ccnc1CS(=O)(=O)c1nc2cc(-n3cccc3)ccc2[nH]1", "values": [{"measurement": "inhibition", "setting": "Keratinocyte [4]", "result": "Active"}]}
{"smiles": "COc1ccc2[nH]c([S+]([O-])Cc3ncc(C)c(OC)c3C)nc2c1", "note": "(stereo not drawn)", "values": [{"measurement": "inhibition", "setting": "Keratinocyte [5]", "result": "Active"}, {"measurement": "inhibition", "setting": "Keratinocyte [6]", "result": "Active"}, {"measurement": "inhibition", "setting": "Keratinocyte [7]", "result": "Active"}, {"measurement": "inhibition", "setting": "Keratinocyte [2]", "result": "Active"}, {"measurement": "inhibition", "setting": "Keratinocyte [4]", "result": "Active"}, {"measurement": "inhibition", "setting": "Rattus norvegicus [8]", "result": "Active"}, {"measurement": "Activity", "setting": "Rattus norvegicus [9]", "result": "Active"}, {"measurement": "inhibition", "setting": "Mus musculus", "result": "Active"}]}
{"smiles": "COc1c(C)cnc(CS(=O)(=O)c2nc3cc(-n4cccc4)ccc3[nH]2)c1C", "values": [{"measurement": "inhibition", "setting": "Keratinocyte [6]", "result": "Active"}]}
{"smiles": "COCCCOc1ccnc(CS(=O)(=O)c2nc3ccccc3[nH]2)c1C", "values": [{"measurement": "inhibition", "setting": "Keratinocyte [2]", "result": "Active"}]}
{"smiles": "COc1ccc2[nH]c([S@+]([O-])Cc3ncc(C)c(OC)c3C)nc2c1", "values": [{"measurement": "inhibition", "setting": "Keratinocyte [3]", "result": "Active"}]}
{"smiles": "COc1ccc2[nH]c(S(=O)(=O)Cc3nccc(OC)c3C)nc2c1", "values": [{"measurement": "inhibition", "setting": "Keratinocyte [3]", "result": "Active"}]}
{"smiles": "COc1ccc2[nH]c(C(=O)Cc3ncc(C)c(OC)c3C)nc2c1", "values": [{"measurement": "inhibition", "setting": "Keratinocyte [5]", "result": "Active"}]}
{"smiles": "COc1c(C)cnc(C[S@@+]([O-])c2nc3cc(OC(F)F)ccc3[nH]2)c1C", "values": [{"measurement": "inhibition", "setting": "Keratinocyte [7]", "result": "Active"}]}
{"smiles": "COc1ccc2[nH]c(S(=O)(=O)Cc3ncc(C)c(OC)c3C)nc2c1", "values": [{"measurement": "inhibition", "setting": "Keratinocyte [7]", "result": "Active"}]}
{"smiles": "COCCCOc1ccnc(CC(=O)c2nc3cc(OC(F)(F)F)ccc3[nH]2)c1C", "values": [{"measurement": "inhibition", "setting": "Keratinocyte [5]", "result": "Active"}]}
{"smiles": "COc1c(C)cnc(CC(O)c2nc3ccccc3[nH]2)c1C", "note": "(stereo not drawn)", "values": [{"measurement": "inhibition", "setting": "Keratinocyte [4]", "result": "Active"}]}
{"smiles": "COc1ccnc(CC(O)c2nc3cc(OC(F)(F)F)ccc3[nH]2)c1OC", "note": "(stereo not drawn)", "values": [{"measurement": "inhibition", "setting": "Keratinocyte [10]", "result": "Active"}]}
{"smiles": "COCCCOc1ccnc(C[S+]([O-])c2nc3ccccc3[nH]2)c1C", "note": "(stereo not drawn)", "values": [{"measurement": "inhibition", "setting": "Keratinocyte [6]", "result": "Active"}, {"measurement": "inhibition", "setting": "Keratinocyte [1]", "result": "Active"}, {"measurement": "inhibition", "setting": "Keratinocyte [10]", "result": "Active"}]}
{"smiles": "COc1ccnc(C[S+]([O-])c2nc3cc(-n4cccc4)ccc3[nH]2)c1C", "note": "(stereo not drawn)", "values": [{"measurement": "inhibition", "setting": "Keratinocyte [6]", "result": "Active"}, {"measurement": "inhibition", "setting": "Keratinocyte [10]", "result": "Active"}]}
{"smiles": "COc1ccnc(CC(O)c2nc3ccccc3[nH]2)c1C", "note": "(stereo not drawn)", "values": [{"measurement": "inhibition", "setting": "Keratinocyte [5]", "result": "Active"}, {"measurement": "inhibition", "setting": "Keratinocyte [6]", "result": "Active"}]}
{"smiles": "COc1ccnc(CC(C)(O)c2nc3cc(-n4cccc4)ccc3[nH]2)c1OC", "note": "(stereo not drawn)", "values": [{"measurement": "inhibition", "setting": "Keratinocyte [2]", "result": "Active"}]}
{"smiles": "Cc1c(OCC(F)(F)F)ccnc1C[S+]([O-])c1nc2ccccc2[nH]1", "note": "(stereo not drawn)", "values": [{"measurement": "inhibition", "setting": "Keratinocyte [1]", "result": "Active"}, {"measurement": "inhibition", "setting": "Keratinocyte [7]", "result": "Active"}, {"measurement": "inhibition", "setting": "Keratinocyte [3]", "result": "Active"}, {"measurement": "inhibition", "setting": "Keratinocyte [4]", "result": "Active"}]}
{"smiles": "Cc1cnc(CC(=O)c2nc3ccccc3[nH]2)c(C)c1OCC(F)(F)F", "values": [{"measurement": "inhibition", "setting": "Keratinocyte [6]", "result": "Active"}]}
{"smiles": "COCCCOc1ccnc(C[S@+]([O-])c2nc3cc(OC(F)(F)F)ccc3[nH]2)c1C", "values": [{"measurement": "inhibition", "setting": "Keratinocyte [7]", "result": "Active"}]}
{"smiles": "COc1ccnc(CC(O)c2nc3cc(OC(F)(F)F)ccc3[nH]2)c1C", "note": "(stereo not drawn)", "values": [{"measurement": "inhibition", "setting": "Keratinocyte [4]", "result": "Active"}]}
{"smiles": "Cc1c(OCC(F)(F)F)ccnc1CS(=O)(=O)c1nc2cc(OC(F)F)ccc2[nH]1", "values": [{"measurement": "inhibition", "setting": "Keratinocyte [1]", "result": "Active"}, {"measurement": "inhibition", "setting": "Keratinocyte [3]", "result": "Active"}]}
{"smiles": "COc1ccc2[nH]c([S@@+]([O-])Cc3nccc(OC)c3C)nc2c1", "values": [{"measurement": "inhibition", "setting": "Keratinocyte [3]", "result": "Active"}, {"measurement": "inhibition", "setting": "Keratinocyte [10]", "result": "Active"}]}
{"smiles": "Cc1c(OCC(F)(F)F)ccnc1CC(C)(O)c1nc2cc(OC(F)F)ccc2[nH]1", "note": "(stereo not drawn)", "values": [{"measurement": "inhibition", "setting": "Keratinocyte [7]", "result": "Active"}]}
{"smiles": "COc1ccnc(CC(C)(O)c2nc3cc(OC(F)(F)F)ccc3[nH]2)c1OC", "note": "(stereo not drawn)", "values": [{"measurement": "inhibition", "setting": "Keratinocyte [10]", "result": "Active"}]}
{"smiles": "COc1c(C)cnc(C[S@@](=O)c2nc3ccccc3[nH]2)c1C", "values": [{"measurement": "inhibition", "setting": "Keratinocyte [10]", "result": "Active"}]}
{"smiles": "COc1ccnc(CS(=O)(=O)c2nc3ccccc3[nH]2)c1OC", "values": [{"measurement": "inhibition", "setting": "Keratinocyte [5]", "result": "Active"}]}
{"smiles": "COc1ccnc(C[S+]([O-])c2nc3cc(OC(F)F)ccc3[nH]2)c1OC", "note": "(stereo not drawn)", "values": [{"measurement": "inhibition", "setting": "Keratinocyte [5]", "result": "Active"}, {"measurement": "inhibition", "setting": "Keratinocyte [1]", "result": "Active"}, {"measurement": "inhibition", "setting": "Keratinocyte [2]", "result": "Active"}, {"measurement": "inhibition", "setting": "Keratinocyte [4]", "result": "Active"}, {"measurement": "inhibition", "setting": "Rattus norvegicus [8]", "result": "Active"}, {"measurement": "Activity", "setting": "Rattus norvegicus [9]", "result": "Active"}]}
